Laboratory results published in patent US20240228482A1, “COMPOUNDS, COMPOSITIONS AND METHODS OF TREATING CANCER” (HOTSPOT THERAPEUTICS, INC., priority 2021, published 2024).

Target: T1, CBL-B (Homo sapiens, UniProt Q13191)
T1 construct: GST
Test: CBL-B TR-FRET IC50 screening (E1/E2 ubiquitination, Biotin-Ubiquitin, Anti GST-Tb donor / Streptavidin-d2 acceptor)
Assay type: biochemical
Details: CBL-B 10 nM final; 11-point titration from 100 uM; binned A-F; read-out: CBL-B TR-FRET activity IC50

T1 sequence (Q13191 whole entry): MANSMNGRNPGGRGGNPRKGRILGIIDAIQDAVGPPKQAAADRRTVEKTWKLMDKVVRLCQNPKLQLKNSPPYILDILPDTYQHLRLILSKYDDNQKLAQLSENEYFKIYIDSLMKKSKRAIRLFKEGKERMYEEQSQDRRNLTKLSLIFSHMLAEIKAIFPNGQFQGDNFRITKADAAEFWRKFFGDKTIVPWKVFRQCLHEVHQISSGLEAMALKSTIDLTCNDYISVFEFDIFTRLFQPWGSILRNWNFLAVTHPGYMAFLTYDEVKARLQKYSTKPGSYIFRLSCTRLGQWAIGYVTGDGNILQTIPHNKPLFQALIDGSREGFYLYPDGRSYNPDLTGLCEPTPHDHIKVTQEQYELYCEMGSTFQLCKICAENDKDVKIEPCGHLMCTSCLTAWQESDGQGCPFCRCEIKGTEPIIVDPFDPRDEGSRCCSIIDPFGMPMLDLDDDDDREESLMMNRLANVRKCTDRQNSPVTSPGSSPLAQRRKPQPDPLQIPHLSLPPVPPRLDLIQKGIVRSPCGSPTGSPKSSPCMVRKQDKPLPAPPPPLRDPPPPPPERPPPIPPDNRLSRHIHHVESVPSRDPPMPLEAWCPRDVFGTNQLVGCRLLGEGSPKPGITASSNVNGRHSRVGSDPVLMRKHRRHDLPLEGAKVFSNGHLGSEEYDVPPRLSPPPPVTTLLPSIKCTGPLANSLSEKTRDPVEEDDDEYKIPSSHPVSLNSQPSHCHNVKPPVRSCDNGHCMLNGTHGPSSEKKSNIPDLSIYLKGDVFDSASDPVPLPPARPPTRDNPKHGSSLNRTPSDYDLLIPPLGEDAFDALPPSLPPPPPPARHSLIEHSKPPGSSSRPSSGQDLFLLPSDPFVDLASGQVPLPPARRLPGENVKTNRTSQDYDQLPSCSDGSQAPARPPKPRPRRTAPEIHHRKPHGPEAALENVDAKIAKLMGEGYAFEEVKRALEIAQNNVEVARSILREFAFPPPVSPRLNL

Row | SMILES | IC50 [µM]
1 | Cn1cnnc1CC1(c2cccc(-n3cc4c(C(F)(F)F)cc(C5CCN(C(=O)OC(C)(C)C)C5)cn4c3=O)c2)COC1 (stereo not drawn) [Compound 65] | 0.301 to 1
2 | Cn1cnnc1CC1(c2cccc(-n3cc4c(Cl)cc(CN5CC[C@H](F)C5)cn4c3=O)c2)COC1 [Compound 66] | < 0.1
3 | C=C(C)C[C@H](c1cccc(-n2cc3c(C(F)(F)F)cc(CN4CCC[C@H](C)C4)cn3c2=O)c1)c1nncn1C [Compound 69] | < 0.1
4 | Cc1cccn2c(=O)n(-c3cccc(C4(Cc5nncn5C)COC4)c3)cc12 [Compound 70] | 0.301 to 1
5 | Cn1cnnc1CC1(c2cccc(-n3cc4ccccn4c3=O)c2)COC1 [Compound 71] | 0.1 to 0.3
6 | C[C@@H]1CN(Cc2cc(C(F)(F)F)c3cn(-c4cccc(C5(Cc6nncn6C)COC5)c4)c(=O)n3c2)CCC1(F)F [Compound 72] | 0.301 to 1
7 | C[C@H]1CN(Cc2cc(C(F)(F)F)c3cn(-c4cccc(C5(Cc6nncn6C)COC5)c4)c(=O)n3c2)CCC1(F)F [Compound 73] | 3 to 10
8 | C[C@H]1CCCN(Cc2cc(C(F)(F)F)c3cn(-c4cccc(C5(c6nncn6C)CC6(CC6)C5)c4)c(=O)n3c2)C1 [Compound 74] | 0.1 to 0.3
9 | Cn1cnnc1CC1(c2cccc(-n3cc4c(C(F)(F)F)cc(CNCCO)cn4c3=O)c2)COC1 [Compound 75] | 0.1 to 0.3
10 | CN(CCO)Cc1cc(C(F)(F)F)c2cn(-c3cccc(C4(Cc5nncn5C)COC4)c3)c(=O)n2c1 [Compound 76] | 0.1 to 0.3
11 | COCCOCc1cc(C(F)(F)F)c2cn(-c3cccc(C4(Cc5nncn5C)COC4)c3)c(=O)n2c1 [Compound 77] | < 0.1
12 | CN1CC=C(c2cc(C(F)(F)F)c3cn(-c4cccc(C5(Cc6nncn6C)COC5)c4)c(=O)n3c2)C1 [Compound 78] | < 0.1
13 | CN(C)C1CC=C(c2cc(C(F)(F)F)c3cn(-c4cccc(C5(Cc6nncn6C)COC5)c4)c(=O)n3c2)CC1 (stereo not drawn) [Compound 79] | < 0.1
14 | Cn1cnnc1CC1(c2cccc(-n3cc4c(C(F)(F)F)cc(C5CCNC5)cn4c3=O)c2)COC1 (stereo not drawn) [Compound 80] | 0.301 to 1
15 | CN1CCC(c2cc(C(F)(F)F)c3cn(-c4cccc(C5(Cc6nncn6C)COC5)c4)c(=O)n3c2)C1 (stereo not drawn) [Compound 83] | > 10
16 | CN1CCCC(c2cc(C(F)(F)F)c3cn(-c4cccc(C5(Cc6nncn6C)COC5)c4)c(=O)n3c2)C1 (stereo not drawn) [Compound 84] | > 10
17 | C[C@H]1CCCN(Cc2cc(C(F)(F)F)c3cn(-c4cccc([C@H](c5nncn5C)C5CCC5)c4)c(=O)n3c2)C1 [Compound 85] | < 0.1
18 | C[C@H]1CCCN(Cc2cc(C(F)(F)F)c3cn(-c4cccc([C@@H](c5nncn5C)C5CCC5)c4)c(=O)n3c2)C1 [Compound 86] | 0.301 to 1
19 | CN(C)C1CCC(c2cc(C(F)(F)F)c3cn(-c4cccc(C5(Cc6nncn6C)COC5)c4)c(=O)n3c2)CC1 (stereo not drawn) [Compound 87] | 0.1 to 0.3
20 | COc1cc(C(F)(F)F)c2cn(-c3cccc(C4(Cc5nncn5C)COC4)c3)c(=O)n2c1 [Compound 88] | 1 to 3
21 | Cn1cnnc1CC1(c2cccc(-n3cc4c(C(F)(F)F)cc(C#CCN5CCCC5)cn4c3=O)c2)COC1 [Compound 89] | 0.1 to 0.3
22 | Cn1cnnc1CC1(c2cccc(-n3cc4c(C(F)(F)F)cc(COCCO)cn4c3=O)c2)COC1 [Compound 90] | 0.1 to 0.3
23 | O=c1n(-c2cccc(C3(Cc4nncn4C(F)F)COC3)c2)cc2c(C(F)(F)F)cc(CN3CCC4(CC4)C3)cn12 [Compound 91] | < 0.1

Row | SMILES | IC50 [µM]
24 | Cn1cnnc1CC1(c2cccc(-n3cc4c(C(F)(F)F)cc(CCC(=O)O)cn4c3=O)c2)COC1 [Compound 92] | 0.301 to 1
25 | Cn1cnnc1CC1(c2cccc(-n3cc4c(C(F)(F)F)cc(Cl)cn4c3=O)c2)COC1 [Compound 93] | 0.1 to 0.3
26 | Cn1cnnc1CC1(c2cccc(-n3cc4c(C=O)cccn4c3=O)c2)COC1 [Compound 94] | 3 to 10
27 | Cn1cnnc1CC1(c2cccc(-n3cc4c(C(F)F)cccn4c3=O)c2)COC1 [Compound 95] | 0.301 to 1
28 | Cn1cnnc1CC1(c2cccc(-n3cc4c(C(F)(F)F)cc(OCC(C)(C)O)cn4c3=O)c2)COC1 [Compound 98] | 0.1 to 0.3
29 | Cn1cnnc1CC1(c2cccc(-n3cc4c(C(F)(F)F)cc(C(C)(C)O)cn4c3=O)c2)COC1 [Compound 101] | 1 to 3
30 | [2H]C([2H])([2H])n1cnnc1C1(c2cccc(-n3cc4c(C(F)(F)F)cc(CN5CCC[C@H](C)C5)cn4c3=O)c2)CC2(CC2)C1 [Compound 102] | < 0.1
31 | Cn1cnnc1C1(c2cccc(-n3cc4c(C(F)(F)F)cc(Br)cn4c3=O)c2)CC2(CC2)C1 [Compound 103] | 0.1 to 0.3
32 | Cn1cnnc1CC1(c2cccc(-n3cc4c(C(F)(F)F)cc(F)cn4c3=O)c2)COC1 [Compound 104] | 0.1 to 0.3
33 | COc1cc(-n2cc3c(C(F)(F)F)cc(Br)cn3c2=O)cc(C2(Cc3nncn3C)COC2)c1 [Compound 105] | 0.1 to 0.3
34 | Cn1cnnc1CC1(c2cccc(-n3cc4c(C(F)(F)F)cc(CN5CCNC(=O)C5)cn4c3=O)c2)COC1 [Compound 106] | 0.1 to 0.3
35 | COc1cc(-n2cc3c(C(F)(F)F)cc(CN4CCC[C@H](C)C4)cn3c2=O)cc(C2(Cc3nncn3C)COC2)c1 [Compound 107] | < 0.1
36 | COc1cc(-n2cc3c(C(F)(F)F)cc(CN4CCC5(CC5)C4)cn3c2=O)cc(C2(Cc3nncn3C)COC2)c1 [Compound 108] | < 0.1
37 | COc1cc(-n2cc3c(C(F)(F)F)cc(CN4CC[C@H](F)C4)cn3c2=O)cc(C2(Cc3nncn3C)COC2)c1 [Compound 109] | < 0.1
38 | COc1cc(-n2cc3c(C(F)(F)F)cc(CN4CC5(CC5)C4)cn3c2=O)cc(C2(Cc3nncn3C)COC2)c1 [Compound 110] | < 0.1
39 | Cn1cnnc1C1(c2cccc(-n3cc4c(C(F)(F)F)cc(CN5CCC(C)(F)CC5)cn4c3=O)c2)CC2(CC2)C1 [Compound 111] | < 0.1
40 | Cn1cnnc1C1(c2cccc(-n3cc4c(C(F)(F)F)cc(CN5CCC(F)CC5)cn4c3=O)c2)CC2(CC2)C1 [Compound 112] | < 0.1
41 | Cn1cnnc1C1(c2cccc(-n3cc4c(C(F)(F)F)cc(C#N)cn4c3=O)c2)CC2(CC2)C1 [Compound 113] | 0.301 to 1
42 | Cn1cnnc1C1(c2cccc(-n3cc4c(C(F)(F)F)cc(CN5CC6(CC6)C5)cn4c3=O)c2)CC2(CC2)C1 [Compound 114] | < 0.1
43 | Cn1cnnc1C1(c2cccc(-n3cc4c(C(F)(F)F)cc(CN5CCC6(CC6)C5)cn4c3=O)c2)CC2(CC2)C1 [Compound 115] | < 0.1
44 | C[C@@H]1CN(Cc2cc(C(F)(F)F)c3cn(-c4cccc(C5(c6nncn6C)CC6(CC6)C5)c4)c(=O)n3c2)CCO1 [Compound 116] | < 0.1
45 | Cn1cnnc1C1(c2cccc(-n3cc4c(C(F)(F)F)cc(CN5CC[C@H](F)C5)cn4c3=O)c2)CC2(CC2)C1 [Compound 117] | < 0.1
46 | [2H]C([2H])([2H])n1cnnc1C1(c2cccc(-n3cc4c(C(F)(F)F)cc(CN5CCO[C@H](C)C5)cn4c3=O)c2)CC2(CC2)C1 [Compound 118] | < 0.1

Row | SMILES | IC50 [µM]
47 | COc1cc(-n2cc3c(C(F)(F)F)cc(CN4CCC(C)(F)CC4)cn3c2=O)cc(C2(Cc3nncn3C)COC2)c1 [Compound 121] | < 0.1
48 | CO[C@H]1CCCN(Cc2cc(C(F)(F)F)c3cn(-c4cccc(C5(Cc6nncn6C)COC5)c4)c(=O)n3c2)C1 [Compound 123] | < 0.1
49 | CO[C@@H]1CCCN(Cc2cc(C(F)(F)F)c3cn(-c4cccc(C5(Cc6nncn6C)COC5)c4)c(=O)n3c2)C1 [Compound 124] | < 0.1
50 | Cn1cnnc1CC1(c2cccc(-n3cc4c(C(F)(F)F)cc(CN5CCC[C@H](O)C5)cn4c3=O)c2)COC1 [Compound 125] | < 0.1
51 | Cn1cnnc1CC1(c2cccc(-n3cc4c(C(F)(F)F)cc(CN5CCC[C@@H](O)C5)cn4c3=O)c2)COC1 [Compound 126] | < 0.1
52 | Cn1cnnc1C(c1cccc(-n2cc3c(C(F)(F)F)cc(Br)cn3c2=O)c1)C1COC1 (stereo not drawn) [Compound 127] | 0.301 to 1
53 | Cn1cnnc1CC1(c2cccc(-n3cc4c(C(F)(F)F)cc(CN5CC6(COC6)C5)cn4c3=O)c2)COC1 [Compound 128] | < 0.1
54 | Cn1cnnc1CC1(c2cccc(-n3cc4c(C(F)(F)F)cc(CN5CC[C@H](O)C5)cn4c3=O)c2)COC1 [Compound 129] | 0.1 to 0.3
55 | Cn1cnnc1CC1(c2cccc(-n3cc4c(C(F)(F)F)cc(CN5CC[C@@H](O)C5)cn4c3=O)c2)COC1 [Compound 130] | 0.1 to 0.3
56 | Cn1cnnc1CC1(c2cccc(-n3cc4c(C(F)(F)F)cc(CN5CC6(CCO6)C5)cn4c3=O)c2)COC1 [Compound 131] | < 0.1
57 | CN(Cc1nncn1C)c1cccc(-n2cc3c(C(F)(F)F)cc(Br)cn3c2=O)c1 [Compound 132] | > 10
58 | Cn1cnnc1CC1(c2cccc(-n3cc4c(C(F)(F)F)cccn4c3=O)c2)CN(C(=O)OC(C)(C)C)C1 [Compound 133] | > 10
59 | CC(=O)NCc1cc(C(F)(F)F)c2cn(-c3cccc(C4(Cc5nncn5C)COC4)c3)c(=O)n2c1 [Compound 139] | 0.1 to 0.3
60 | C[C@H]1CCCN(Cc2cc(C(F)(F)F)c3cn(-c4cccc([C@H](c5nncn5C)C5COC5)c4)c(=O)n3c2)C1 [Compound 140] | < 0.1
61 | Cn1cnnc1C(c1cccc(-n2cc3c(C(F)(F)F)cccn3c2=O)c1)C1COC1 (stereo not drawn) [Compound 141] | 1 to 3
62 | Cn1cnnc1CC(c1cccc(-n2cc3c(C(F)(F)F)cccn3c2=O)c1)n1cccn1 (stereo not drawn) [Compound 142] | > 10
63 | CC(=O)N1CC(Cc2nncn2C)(c2cccc(-n3cc4c(C(F)(F)F)cccn4c3=O)c2)C1 [Compound 143] | > 10
64 | Cn1cnnc1CC1(c2cccc(-n3cc4c(C(F)(F)F)cccn4c3=O)c2)CNC1 [Compound 144] | > 10
65 | [2H]C([2H])([2H])n1cnnc1CC1(c2cccc(-n3cc4c(C(F)(F)F)cc(Br)cn4c3=O)c2)COC1 [Compound 145] | 0.1 to 0.3
66 | Cn1cnnc1CC1(n2cc(-n3cc4c(C(F)(F)F)cccn4c3=O)cn2)COC1 [Compound 146] | > 10
67 | O=c1n(-c2cccc(C3(Cc4nnco4)COC3)c2)cc2c(C(F)(F)F)cccn12 [Compound 147] | > 10
68 | Cn1cnnc1CC(c1ccccc1)c1cccc(-n2cc3c(C(F)(F)F)cccn3c2=O)c1 (stereo not drawn) [Compound 148] | > 10
69 | Cn1cnnc1CSc1cccc(-n2cc3c(C(F)(F)F)cccn3c2=O)c1 [Compound 149] | > 10
